Earlier results, collected in patent US20220054380A1, “CANN[…] ESTERS FOR COSMETIC OR EDIBLE COMPOSITIONS” (EPM (IP), Inc., priority 2018, published 2022).

How the values were obtained:
rats [1] = settings: compared with CBDA, 5-HT1A receptor-dependent
rats [2] = settings: compared with CBDA, 5-HT1A receptor-dependent; remark: listed apart in the source
rats [3] = settings: oral ingestion, low dose (1 mg/kg), two rat models

C=C(C)C1CCC(C)=C[C@H]1c1c(O)cc(CCCCC)c(C(=O)OC)c1O (stereo partly drawn) [HU-580, Cannabidiolic Acid Methyl Ester]
potency at suppressing signs of acute and anticipatory nausea (rats [1]): greater potency than CBDA
potency at suppressing signs of stress-induced anxiety (rats [2]): greater potency than CBDA
anti-depressant effect (rats [3]): potent anti-depressant effect
